In US8153791B2, “Substituted pyrimidinyl oxime kinase inhibitors” (Janssen Pharmaceutica N.V., priority 2005, dated 2012):

Key:
EGFR = target: T1, EGFR (Homo sapiens, UniProt P00533); assay: EGFR Kinase Assay; assay type: biochemical; settings: for inhibition at 2 µM: test concentration of 2 μM;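 on all read-outs here: recombinant GST-tagged EGFR expressed in Sf9 cells, phosphorylating biotinylated polyGluTyr with γ-33P ATP on Streptavidin Flashplates, 1 h at 30 °C, scintillation counting, inhibition relative to plate maximum and minimum signals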
T1 construct: The intracellular portion of EGFR started at nucleotide 2189 (corresponding to amino acid 667) and ended at the termination codon; made in house; host or cells: Sf9 insect cells (baculovirus)
T1 sequence (P00533 669-1210 limits assumed): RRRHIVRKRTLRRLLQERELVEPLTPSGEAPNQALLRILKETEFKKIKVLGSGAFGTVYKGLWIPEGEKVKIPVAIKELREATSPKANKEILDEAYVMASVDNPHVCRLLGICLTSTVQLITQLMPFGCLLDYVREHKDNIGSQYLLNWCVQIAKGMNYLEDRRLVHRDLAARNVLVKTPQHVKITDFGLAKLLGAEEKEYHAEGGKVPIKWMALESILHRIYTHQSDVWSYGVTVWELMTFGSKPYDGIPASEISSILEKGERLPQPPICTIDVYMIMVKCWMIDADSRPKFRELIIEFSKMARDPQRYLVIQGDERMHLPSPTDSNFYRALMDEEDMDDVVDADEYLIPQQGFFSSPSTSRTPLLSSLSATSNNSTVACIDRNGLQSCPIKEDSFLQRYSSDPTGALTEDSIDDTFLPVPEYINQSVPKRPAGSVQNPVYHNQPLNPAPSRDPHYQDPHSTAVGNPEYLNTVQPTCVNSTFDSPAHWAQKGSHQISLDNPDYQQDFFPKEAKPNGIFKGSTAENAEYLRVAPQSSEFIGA

HER-2 = target: T2, HER-2 (Homo sapiens, UniProt P04626); assay: HER-2 Kinase Assay; assay type: biochemical; settings: read-out: HER2 IC50;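 further: HER2 kinase reaction read by scintillation counting, inhibition scaled between maximum and minimum signals set on each plate, IC50 from inhibition against log concentration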
T2 construct: purchased Proqinase (Freiburg, Germany)
T2 sequence (P04626 679-1255): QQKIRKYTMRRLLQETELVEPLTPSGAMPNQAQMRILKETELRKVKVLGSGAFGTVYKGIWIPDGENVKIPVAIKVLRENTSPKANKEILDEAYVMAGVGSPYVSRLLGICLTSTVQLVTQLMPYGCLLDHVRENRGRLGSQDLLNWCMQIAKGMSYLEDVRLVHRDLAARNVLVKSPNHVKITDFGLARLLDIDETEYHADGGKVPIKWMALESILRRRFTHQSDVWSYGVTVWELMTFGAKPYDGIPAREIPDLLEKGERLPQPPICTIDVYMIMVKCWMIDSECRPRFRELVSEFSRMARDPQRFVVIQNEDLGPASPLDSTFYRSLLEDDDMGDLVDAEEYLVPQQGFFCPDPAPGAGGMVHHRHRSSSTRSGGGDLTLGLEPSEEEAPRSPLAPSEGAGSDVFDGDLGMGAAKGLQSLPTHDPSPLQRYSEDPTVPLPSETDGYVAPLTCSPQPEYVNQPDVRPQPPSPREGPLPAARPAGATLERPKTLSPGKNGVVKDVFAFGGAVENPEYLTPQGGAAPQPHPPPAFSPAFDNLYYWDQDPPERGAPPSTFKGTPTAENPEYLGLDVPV

| IC50 (EGFR) [nM] | IC50 (HER-2) [nM] | inhibition at 2 µM (EGFR) [%] | Structure (SMILES) |
| --- | --- | --- | --- |
| 1900 | 28500 |  | CO/N=C/c1c(N)ncnc1Nc1ccc2c(c1)OCO2 [Cpd 23] |
|  | 2460 | 26 | CON=Cc1c(N)ncnc1NC1CCc2ccccc21 (centres unmarked) [Cpd 124, 4-amino-6-(indan-1-ylamino)-pyrimidine-5-carbaldehyde O-methyl-oxime] |
| 100 | 50 |  | CO/N=C/c1c(N)ncnc1Nc1ccc(Oc2cccnc2)c(Cl)c1 [Cpd 38, (5E)-4-amino-6-[3-chloro-4-(pyridin-3-yloxy)-phenylamino]-pyrimidine-5-carbaldehyde O-methyl-oxime] |
| 1400 | 10400 |  | CCNc1ncnc(Nc2ccc(OCc3cccc(F)c3)c(Cl)c2)c1/C=N/OCC [Cpd 43, (5E)-4-[3-chloro-4-(3-fluoro-benzyloxy)-phenylamino]-6-ethylamino-pyrimidine-5-carbaldehyde O-ethyl-oxime] |
| 200 | 200 |  | CO/N=C/c1c(N)ncnc1Nc1ccc(Oc2ccc(C)nc2)c(C)c1 [Cpd 29, (5E)-4-amino-6-[3-methyl-4-(6-methyl-pyridin-3-yloxy)-phenylamino]-pyrimidine-5-carbaldehyde O-methyl-oxime] |
| 70 | 1600 |  | COc1ccc(CO/N=C/c2c(N)ncnc2Nc2ccc3c(cnn3Cc3cccc(F)c3)c2)cc1 [Cpd 44, (5E)-4-amino-6-[1-(3-fluoro-benzyl)-1H-indazol-5-ylamino]-pyrimidine-5-carbaldehyde O-(4-methoxy-benzyl)-oxime] |
| 20 | 300 |  | Nc1ncnc(Nc2ccc3c(cnn3Cc3cccc(F)c3)c2)c1/C=N/OCCOc1ccccc1 [Cpd 31, (5E)-4-amino-6-[1-(3-fluoro-benzyl)-1H-indazol-5-ylamino]-pyrimidine-5-carbaldehyde O-(2-phenoxy-ethyl)-oxime] |
| 10 | 50 |  | COCCO/N=C/c1c(N)ncnc1Nc1ccc(OCc2ccccc2)c(Cl)c1 [Cpd 71, (5E)-4-amino-6-(4-benzyloxy-3-chloro-phenylamino)-pyrimidine-5-carbaldehyde O-(2-methoxy-ethyl)-oxime] |
|  | > 100000 | 7 | CON=Cc1c(N)ncnc1NCc1ccc(Oc2ccccc2)cc1 [Cpd 123, 4-amino-6-(4-phenoxy-benzylamino)-pyrimidine-5-carbaldehyde O-methyl-oxime] |
| 40 | 30 |  | CCO/N=C/c1c(N)ncnc1Nc1ccc2c(cnn2Cc2cccc(Cl)c2)c1 [Cpd 55, (5E)-4-amino-6-[1-(3-chloro-benzyl)-1H-indazol-5-ylamino]-pyrimidine-5-carbaldehyde O-ethyl-oxime] |
